Test system: genes listed in Table 6 (CR marker panel), white adipose tissue
Experiment: Testing ingredients for mimicry of caloric restriction: feeding study, RT-qPCR of the Table 6 gene panel in white adipose tissue, fold change as percentage of the fold change in the CR group
Format: in vivo, C57BL/6J mice
Parameters: key to Avg. CRMI: points per gene: 11-20% mimicry = 1, 21-30% = 2...; opposite effect negative
Details: for Avg. CRMI: CR Mimetic Index, points per gene from mimicry score plus five points for significance; for Avg. mimicry: average over significantly changed genes; for CMII: mimetic index = average mimicry (fraction of CR) x number of significantly changed genes
Description: C57BL/6J mice were purchased from Jackson Laboratories at 6 weeks of age and maintained as described previously in Barger J L, et al. (2008) A Low Dose of Dietary Resveratrol Partially Mimics Caloric Restriction and Retards Aging Parameters in Mice. PLoS ONE 3(6): e2264 (http://dx.doi.org/10.1371/journal.pone.0002264). Briefly, mice were individually housed in shoebox cages and provided with 24 grams (˜84 kcal) of AIN-93M diet per week (7 grams on Monday and Wednesday and 10 grams on Friday). Starting at 8 weeks of age and continuing until 22 weeks of age, mice were either a) maintained on the AIN-93M diet (control group), b) fed a Calorie Restricted (CR) diet providing 63 kcal/week of a modified AIN93M from 8-16 weeks of age and then further reduced to a diet providing 49 kcal/week of a modified AIN93M from 16-22 weeks of age; or c) were assigned to an AIN93M diet supplemented with one of the following test ingredients: 1) bezafibrate at a dose of 5,000 mg/kg diet; 2) metformin at a dose of 1,909 mg/kg diet; 3) L-carnitine at a dose of 1,800 mg/kg diet; 4) blood orange extract at a dose of 18 mg/kg of body weight; 5) purple corn extract at a dose of 22 mg/kg of body weight; 6) resveratrol at a dose of 30 mg/kg of body weight; and 7) quercetin at a dose of 17.6 mg/kg of body weight. At 22 weeks of age, tissues were collected from the mice, flash-frozen in liquid nitrogen and stored at −80° C. for later analysis.
In order to screen the ingredients for their ability to mimic CR, quantitative real-time PCR (RT-qPCR) analysis was performed on RNA isolated from white adipose tissue from all groups of mice. Experimental methods and data analysis for RT-qPCR experiments have been published previously in Barger, J L et al., (2008) Short-term consumption of a resveratrol-containing nutraceutical mixture mimics gene expression of long-term caloric restriction in mouse heart, Exp. Gerontology 43(9):859 (http://dx.doi.org/10.1016/j.exger.2008.06.013). Briefly, the magnitude of change in gene expression was determined for each of the genes listed in Table 6 for the CR and treatment groups compared to the control animals. Two-tailed t-tests (assuming equal variance) were used to determine if the change in expression for individual genes was statistically significant. The magnitude of the change in expression (“fold change”) values were log2-adjusted to fit normality assumptions for statistical analyses.
CR mimicry was expressed as the fold change observed in each gene for the test group as a percentage of the fold change observed for that gene in the CR group.
The ingredients tested were based on their mimetic effect across the gene panel.
Another ranking approach was used to reflect effects across all genes. A CR Mimetic Index (CRMI) was calculated per gene for each ingredient by assigning each a number of points based on its mimicry score for each gene. Positive points were given for positive mimicry values (11 to 20%=1 point, 21 to 30%=2 points, 31 to 40%=3 points, and so on). Negative mimicry values (i.e. where the gene expression effect was opposite that observed for CR) received corresponding negative scores (i.e. −11 to −20%=−1 point, −21 to −30%=−2 points, −31 to −40%=[…], and so on). Five points were added for statistical significance of a mimicry value.
In the experimental protocol of Example 2, bezafibrate at 5,000 mg/kg diet was also compared to lower doses (100 and 500 mg/kg).
Mimetic indices were calculated for the 500 mg/kg and 100 mg/kg doses as in Example 2.

[1] = fold change as percentage of CR fold change, white adipose tissue
[2] = white adipose tissue, RT-qPCR, C57BL/6J mice fed from 8 to 22 weeks of age, ingredient doses, only significantly changed genes shown
[3] = white adipose tissue, Table 6 gene panel, diet supplemented from 8 to 22 weeks of age, doses (bezafibrate 5,000 mg/kg diet)
[4] = 100 mg/kg diet, white adipose tissue
[5] = 500 mg/kg diet, white adipose tissue
[6] = 5000 mg/kg diet, white adipose tissue

CN(C)C(=N)N=C(N)N [Metformin, metformin]
Avg. CRMI: 31
Avg. mimicry [1]: 16%
CMII: 0.6
CR mimicry, Acaca (fold change as percentage of the fold change in the CR group) [2]: 17%
CR mimicry, Gpd2 (fold change as percentage of the fold change in the CR group) [2]: 27%
CR mimicry, Me1 (fold change as percentage of the fold change in the CR group) [2]: 11%
CR mimicry, Parm1 (fold change as percentage of the fold change in the CR group) [2]: 10%
No. of genes significantly changed [3]: 4

CC(C)(Oc1ccc(CCNC(=O)c2ccc(Cl)cc2)cc1)C(=O)O [Bezafibrate, bezafibrate]
CR mimicry Acaca [4]: 20%
CR mimicry Cd68 [4]: 58%
CR mimicry Gpd2 [4]: 23%
CR mimicry Ifi27I2a [4]: 39%
CR mimicry Acaca [5]: 23%
CR mimicry Acss2 [5]: 17%
CR mimicry Gpd2 [5]: 31%
CR mimicry Me1 [5]: 18%
CR mimicry Nampt [5]: 87%
CR mimicry Parm1 [5]: 19%
CR mimicry Slc2a4 [5]: 69%
CR mimicry Acaca [6]: 59%
CR mimicry Acss2 [6]: 21%
CR mimicry Cd68 [6]: 58%
CR mimicry Gpd2 [6]: 93%
CR mimicry Ifi27I2a [6]: 75%
CR mimicry Me1 [6]: 24%
CR mimicry Nampt [6]: 233%
CR mimicry Ndufs4 [6]: 108%
CR mimicry Parm1 [6]: 47%
CR mimicry Slc2a4 [6]: 113%
Avg. CRMI: 128
Avg. mimicry [1]: 83%
Avg. CRMI (CR Mimetic Index, points per gene) (bezafibrate 100 mg/kg diet): 28
CMII (average mimicry as fraction of CR x number of significantly changed genes) (bezafibrate 100 mg/kg diet): 1.4
Avg. mimicry (bezafibrate 100 mg/kg diet): 35%
No. of genes significantly changed (bezafibrate 100 mg/kg diet, white adipose tissue gene panel): 4
Avg. CRMI (CR Mimetic Index, points per gene) (bezafibrate 500 mg/kg diet): 68
CMII (average mimicry as fraction of CR x number of significantly changed genes) (bezafibrate 500 mg/kg diet): 2.6
Avg. mimicry (bezafibrate 500 mg/kg diet): 38%
No. of genes significantly changed (bezafibrate 500 mg/kg diet, white adipose tissue gene panel): 7
Avg. CRMI (CR Mimetic Index, points per gene) (bezafibrate 5000 mg/kg diet): 128
CMII (average mimicry as fraction of CR x number of significantly changed genes) (bezafibrate 5000 mg/kg diet): 8.3
Avg. mimicry (bezafibrate 5000 mg/kg diet): 83%
No. of genes significantly changed (bezafibrate 5000 mg/kg diet, white adipose tissue gene panel): 10
CMII: 8.3
CR mimicry, Acaca (fold change as percentage of the fold change in the CR group) [2]: 59%
CR mimicry, Acss2 (fold change as percentage of the fold change in the CR group) [2]: 21%
CR mimicry, Cd68 (fold change as percentage of the fold change in the CR group) [2]: 58%
CR mimicry, Gpd2 (fold change as percentage of the fold change in the CR group) [2]: 93%
CR mimicry, Ifi27I2a (fold change as percentage of the fold change in the CR group) [2]: 75%
CR mimicry, Me1 (fold change as percentage of the fold change in the CR group) [2]: 24%
CR mimicry, Nampt (fold change as percentage of the fold change in the CR group) [2]: 233%
CR mimicry, Ndufs4 (fold change as percentage of the fold change in the CR group) [2]: 108%
CR mimicry, Parm1 (fold change as percentage of the fold change in the CR group) [2]: 47%
CR mimicry, Slc2a4 (fold change as percentage of the fold change in the CR group) [2]: 113%
No. of genes significantly changed [3]: 10

Oc1ccc(C=Cc2cc(O)cc(O)c2)cc1 [Resveratrol, resveratrol]
Avg. CRMI: 35
Avg. mimicry [1]: 34%
CMII: 1.38
CR mimicry, Acaca (fold change as percentage of the fold change in the CR group) [2]: 8%
CR mimicry, Gpd2 (fold change as percentage of the fold change in the CR group) [2]: 10%
CR mimicry, Nampt (fold change as percentage of the fold change in the CR group) [2]: 65%
CR mimicry, Serpine1 (fold change as percentage of the fold change in the CR group) [2]: 55%
No. of genes significantly changed [3]: 4

O=c1c(O)c(-c2ccc(O)c(O)c2)oc2cc(O)cc(O)c12 [Quercetin, quercetin]
Avg. CRMI: 17
Avg. mimicry [1]: 20%
CMII: 0.4
ranking of CR mimicry among tested ingredients (ranking by mimetic index (CMII), Table 8): lowest degree of CR mimicry
CR mimicry, Gpd2 (fold change as percentage of the fold change in the CR group) [2]: 5%
CR mimicry, Slc2a4 (fold change as percentage of the fold change in the CR group) [2]: 35%
No. of genes significantly changed [3]: 2

C[N+](C)(C)C[C@H](O)CC(=O)[O-] [L-carnitine]
Avg. CRMI: 55
Avg. mimicry [1]: 31%
CMII: 2.2
CR mimicry, Acaca (fold change as percentage of the fold change in the CR group) [2]: 5%
CR mimicry, Gpd2 (fold change as percentage of the fold change in the CR group) [2]: 15%
CR mimicry, Nampt (fold change as percentage of the fold change in the CR group) [2]: 84%
CR mimicry, Ndufs4 (fold change as percentage of the fold change in the CR group) [2]: 40%
CR mimicry, Parm1 (fold change as percentage of the fold change in the CR group) [2]: 3%
CR mimicry, Serpine1 (fold change as percentage of the fold change in the CR group) [2]: 52%
CR mimicry, Slc2a4 (fold change as percentage of the fold change in the CR group) [2]: 16%
No. of genes significantly changed [3]: 7
